Data on seven molecules can be found in the supplement of paper PMC4862054.

Holding throughout (settings): incubation time: 72 h
The test system of test [1] is CAL-148. The experiment in a line: normalised viability (% of control), CellTiter-Blue; higher = more viable cells (about 100 = DMSO control). As to the method:
(§1)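 DSRT, CellTiter-Blue viability, 72 h incubation. Signal is normalised to DMSO and benzethonium chloride controls. Value is the normalised response at dose 7.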
(Alamar Blue is a resazurin reagent that responds to reducing activity.)

For test [2], the system named is MDA-MB-453. Described as above. As to the method:
as §1

For test [3], the system named is HDQ-P1. The test is described as above. The protocol: as §1
For test [4], the system named is CAL-51. Described as above. The protocol: as §1
The test system of test [5] is DU-4475. Described as above. As to the method:
as §1

The test system of test [6] is CAL-85-1. The test is described as above. As to the method: as §1
The subject of test [7] is CAL-120. The experiment in a line: normalised response (% of control), CellTiter-Glo; higher = more viable cells (100 = DMSO, 0 = benzethonium chloride kill control). The protocol:
(§2)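 DSRT, 72 h incubation, CellTox Green / CellTiter-Glo readout. Signal is normalised to DMSO and benzethonium chloride controls. Value is the normalised response at the highest dose.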
In general terms: ATP-based viability assays read luminescence as a measure of living cells.

The test system of test [8] is CAL-148. The test is described as above. The protocol:
as §2

Test [9] concerns MDA-MB-231. The description is as above. The protocol:
as §2

Test [10] concerns MDA-MB-453. The description is as above. As to the method: as §2
Test [11] concerns BT-549. Described as above. The protocol: as §2
Test [12] has as its system MDA-MB-468. The description is as above. The protocol:
as §2

The test system of test [13] is HDQ-P1. The test is described as above. The protocol:
as §2

Test [14] deals with HCC1143. The test is described as above. The protocol: as §2
The subject of test [15] is BT-474. Described as above. The protocol: as §2
In test [16] the test system is Hs578T. Described as above. The protocol:
as §2

Test [17] relates to CAL-51. The test is described as above. As to the method: as §2
Test [18] relates to MFM-223. The description is as above. The protocol:
as §2

A further test concerns SK-BR-3. Described as above. As to the method: as §2
The subject of test [19] is HCC1937. Described as above. As to the method:
as §2

In test [20] the test system is MDA-MB-436. The test is described as above. As to the method: as §2
Test [21] concerns DU-4475. Described as above. As to the method: as §2
The subject of test [22] is CAL-85-1. The test is described as above. As to the method:
as §2

For test [23], the system named is MCF-10A. Described as above. As to the method:
as §2

For test [24], the system named is HCC1599. The test is described as above. The protocol: as §2
In test [25] the test system is CAL-120. The experiment in a line: normalised response (% of control), CellTox Green; higher = less cell death (100 = DMSO, 0 = benzethonium chloride kill control). The procedure, abridged: (§3)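 Plates were normalised with 0.1 % DMSO as 100 and a positive kill control as 0. Breast cancer cell lines in 20 µl suspension had been seeded into 384-well plates with compound at 5 concentrations in 10-fold steps over a compound-specific 10,000-fold range, incubated 72 h, and read for CellTox Green fluorescence (485/520 nm) followed by CellTiter-Glo luminescence. Each value is the normalised signal at a single concentration.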

The subject of test [26] is CAL-148. Described as above. A digest of the protocol: as §3
For test [27], the system named is MDA-MB-231. The test is described as above. The procedure, abridged: as §3
Test [28] has as its system MDA-MB-453. Described as above. A digest of the protocol:
as §3

For test [29], the system named is BT-549. The test is described as above. A digest of the protocol:
as §3

Test [30] has as its system MDA-MB-468. Described as above. The procedure, abridged: as §3
For test [31], the system named is HDQ-P1. Described as above. A digest of the protocol:
as §3

The subject of test [32] is HCC1143. The description is as above. A digest of the protocol:
as §3

For test [33], the system named is BT-474. Described as above. The procedure, abridged:
as §3

The subject of test [34] is Hs578T. The test is described as above. A digest of the protocol: as §3
Test [35] has as its system CAL-51. The test is described as above. A digest of the protocol:
as §3

Test [36] concerns MFM-223. The description is as above. A digest of the protocol: as §3
In test [37] the test system is HCC1937. The description is as above. The procedure, abridged: as §3
Test [38] concerns MDA-MB-436. The description is as above. A digest of the protocol:
as §3

The test system of test [39] is DU-4475. The description is as above. A digest of the protocol:
as §3

For test [40], the system named is CAL-85-1. Described as above. The procedure, abridged: as §3
The test system of test [41] is MCF-10A. Described as above. The procedure, abridged:
as §3

In test [42] the test system is HCC1599. Described as above. A digest of the protocol:
as §3

Consider `CCN(CC)CCCC(C)Nc1ccnc2cc(Cl)ccc12` (centres undefined) [Chloroquine] (99 nM), for which the normalised viability came out at 99.1% in the test on CAL-148 [1]; 99.7% in the test on MDA-MB-453 [2]; 132% in the test on HDQ-P1 [3]; 91% with CAL-51 [4]; 110% in the test with DU-4475 [5]; 81.9% with CAL-85-1 [6].
Take `CC1(COc2ccc3c(c2)ncn3-c2ccc3cccc(N4CCC(N)CC4)c3n2)COC1` [Crenolanib] (10000 nM): the normalised response in the test with CAL-120 [7] is 52.4%; with CAL-148 [8], 8.15%; in the test with MDA-MB-231 [9], 0.75%; in the test with MDA-MB-453 [10], 15.6%; with BT-549 [11], 20.6%; with MDA-MB-468 [12], 12.9%. The normalised response came out at 13.9% in the test on HDQ-P1 [13]; 75.8% with HCC1143 [14]; 3.8% with BT-474 [15]; 27.5% in the test on Hs578T [16]; 7.22% in the test with CAL-51 [17]; 61.4% with MFM-223 [18]. Further, the normalised response turned out to be 2.13% in the test with SK-BR-3; 52.4% with HCC1937 [19]; 7.1% in the test on MDA-MB-436 [20]; 25% with DU-4475 [21]; 1.52% with CAL-85-1 [22]; 10.4% in the test on MCF-10A [23]. Also, the normalised response is 60.6% with HCC1599 [24]; 74.8% with CAL-120 [25]; -15.7% in the test with CAL-148 [26]; -59% in the test on MDA-MB-231 [27]; 78.5% in the test on MDA-MB-453 [28]; 28.9% in the test with BT-549 [29]. Moreover, the normalised response is 131% with MDA-MB-468 [30]; 39.2% in the test with HDQ-P1 [31]; 55.7% with HCC1143 [32]; 17.5% in the test on BT-474 [33]; 103% in the test with Hs578T [34]; 30.6% in the test on CAL-51 [35]. Moreover, the normalised response was 93.4% in the test with MFM-223 [36]; 87.1% with HCC1937 [37]; 36.1% with MDA-MB-436 [38]; 63.6% with DU-4475 [39]; -25.9% in the test with CAL-85-1 [40]; -4.14% with MCF-10A [41]. The normalised response with HCC1599 [42] amounted to 81.5%.
As to `CN(Cc1cnc2nc(N)nc(N)c2n1)c1ccc(C(=O)N[C@@H](CCC(=O)O)C(=O)O)cc1` [Methotrexate] (1000 nM), the normalised viability worked out at 67.8% in the test with CAL-148 [1]; 84.2% in the test on MDA-MB-453 [2]; 77.6% in the test with HDQ-P1 [3]; 42.5% in the test on CAL-51 [4]; 110% with DU-4475 [5]; 57.4% in the test with CAL-85-1 [6].
With `COc1c2occc2cc2ccc(=O)oc12` [Methoxsalen] (1000 nM), the normalised viability in the test on CAL-148 [1] came to 106%; in the test with MDA-MB-453 [2] it was 97.9%; in the test on HDQ-P1 [3] it was 96.9%; in the test on CAL-51 [4], 100%; in the test on DU-4475 [5], 112%; in the test with CAL-85-1 [6], 104%.
Consider `C=CCN(/C=C1/C(=O)O[C@H](COC)[C@@]2(C)C1=C(O)C(=O)C1=C2[C@H](OC(C)=O)C[C@]2(C)C(=O)CC[C@@H]12)CC=C` [PX-866] (1000 nM), for which the normalised viability in the test with CAL-148 [1] came to 99.4%; in the test with MDA-MB-453 [2] it was 101%; in the test on HDQ-P1 [3], 86.3%; with CAL-51 [4], 112%; in the test on DU-4475 [5], 102%; with CAL-85-1 [6], 95%.
Regarding `CC[C@H](CO)Nc1nc(NCc2ccccc2)c2ncn(C(C)C)c2n1` [Roscovitine] (1000 nM), the normalised viability turned out to be 92.1% in the test with CAL-148 [1]; 96.2% in the test on MDA-MB-453 [2]; 104% in the test with HDQ-P1 [3]; 105% in the test with CAL-51 [4]; 101% with DU-4475 [5]; 87.8% with CAL-85-1 [6].
In the case of `CC[C@H](CO)Nc1nc(NCc2ccccc2)c2ncn(C(C)C)c2n1` [Seliciclib] (10000 nM), the normalised response came out at 92% in the test on CAL-120 [7]; 117% in the test with CAL-148 [8]; 81.1% in the test on MDA-MB-231 [9]; 132% with MDA-MB-453 [10]; 80.1% in the test on BT-549 [11]; 87.1% in the test on MDA-MB-468 [12]. For the same molecule, the normalised response in the test on HDQ-P1 [13] turned out to be 84.4%; in the test on HCC1143 [14], 96.3%; with BT-474 [15] it was 82.1%; in the test on Hs578T [16] it was 96.4%; in the test on CAL-51 [17], 78.7%; in the test with MFM-223 [18] it was 89%. Besides, the normalised response in the test on SK-BR-3 was 86.2%; in the test with HCC1937 [19] it was 92.4%; in the test with MDA-MB-436 [20] it was 79.9%; in the test with DU-4475 [21], 97.7%; with CAL-85-1 [22], 83.9%; in the test on MCF-10A [23], 95.9%. The normalised response was 95.9% in the test with HCC1599 [24]; 97.2% in the test with CAL-120 [25]; 95.6% in the test on CAL-148 [26]; 108% in the test on MDA-MB-231 [27]; 108% in the test on MDA-MB-453 [28]; 91.5% in the test on BT-549 [29]. The normalised response with MDA-MB-468 [30] came out at 154%; in the test on HDQ-P1 [31], 106%; with HCC1143 [32] it was 84.5%; with BT-474 [33], 100%; in the test with Hs578T [34], 84.9%; with CAL-51 [35], 99.4%. Besides, the normalised response in the test on MFM-223 [36] was found to be 68.6%; in the test with HCC1937 [37], 105%; with MDA-MB-436 [38] it was 91.4%; in the test with DU-4475 [39], 105%; in the test with CAL-85-1 [40], 62.7%; in the test with MCF-10A [41], 108%. Besides, the normalised response in the test on HCC1599 [42] came to 110%.
